The source of these data is paper PMC8073907, “Peptide targeting of lysophosphatidylinositol-sensing GPR55 for osteoclastogenesis tuning” (Cell Communication and Signaling : CCS, 2021).

Where two headings read alike, the source gives them in different places. Bridge positions count the residues as written; N and C are the ends. Ends that are not written are not given here. Peptide text beside a SMILES is read from it. * marks the point of attachment. FITC = O=C1OC2(c3ccc(O)cc3Oc3cc(O)ccc32)c2ccc(NC(=S)*)cc21; Ahx = NCCCCCC(=O)O

Test [1] addresses human GPR55. The following applies: ref [38]; read-out: affinity towards human GPR55; cited from earlier work.
Test [2] deals with GPR55-silenced HeLa cells. The test can be described thus: LPI-induced ERK1/2 and p38 phosphorylation in shGPR55-HeLa clones (Western blot). The format is cell-based, human. The following applies: 10 µM soybean LPI, or 1 µM ionomycin 5 min. The procedure:
For stable interference of GPR55, HeLa cells were plated at 1.5 × 10^5 cells/well in six-well plates in growth medium without antibiotics, and 24 h later, the cells were transfected with 1.7 µg/well OmicsLink short hairpin (sh)RNA expression clone CSHCTR001-CU6 (shCTRL) or clone HSH022476-3-CU6 (shGPR55) from GeneCopoeia (Rockville, MD, USA), using Lipofectamine 2000, according the manufacturer instructions. Forty-eight hours after transfection, HeLa clones stably expressing shRNAs were selected in growth medium containing 0.3 µg/mL puromycin. The efficiency of interference was monitored by real-time PCR using the primers listed in the Additional file 1: Table S1. HPRT1 was followed as a housekeeping gene.
Twenty-four hours after transfection (HEK293T, HeLa cells or clones) or 72 h after interference (RAW264.7 cells), the cells were washed twice with HBSS^++, serum deprived (HEK293T cells for 4 h in DMEM; HeLa cells and clones for 2 h in MEM plus 2 mM glutamine and 25 mM HEPES; RAW264.7 cells for 2 h in DMEM), washed once again with HBSS^++, incubated in stimulation buffer (HBSS^++ with 10 mM HEPES, 0.4% faf-BSA for HEK293T cells; HBSS^++ with 25 mM HEPES and 0.01% faf-BSA for HeLa cells, clones, and RAW264.7 cells) in the absence or presence of stimuli, at 37 °C for the indicated times. Incubations were terminated by washing the cells twice with cold HBSS^++, and the analyses were performed as reported below.
Cell lysates were obtained by scraping the cells into phospho-lysis buffer: 50 mM Tris–HCl, pH 7.5, 100 mM NaCl, 5 mM EDTA, 1% Triton X-100, 50 mM NaF, 40 mM β-glycerophosphate, 200 µM sodium orthovanadate, plus protease and phosphatase inhibitors (Roche). […]
Protein lysates were subjected to SDS-PAGE, and after electrophoresis, the proteins were transferred to a nitrocellulose membrane (PerkinElmer Life Science, Boston, MA, USA). […] The membranes were then washed twice with T-TBS and once with TBS for 5 min, and the signals were detected by ECL (Amersham Pharmacia, Piscataway, NJ, USA). […]

The test system of the next test is ssGPR55-K80A. Put plainly: GPR55-internalisation assay, K80A mutant (FACS). The format is cell-based, human. The following applies: data not shown. From the text:
The construct of haemagglutinin (HA)-tagged human GPR55 in pcDNA3 (HA-GPR55) was a gift from Prof. K. Mackie, Indiana University, Bloomington, IN, USA [39], while the construct ss-3 × HA-GPR55 in pcDNA3.1 (ssGPR55) with a triple HA tag at the N-terminus and an optimised signal sequence (ss, derived from amino acids 1–33 of the human growth hormone: […]) for efficient surface expression was from Prof. A. Irving, Dundee University, UK [40]. For both constructs, mutations were introduced by site-directed mutagenesis using QuickChange kits (Stratagene, La Jolla, CA, USA), according to the manufacturer instructions. The primers for the K80A mutation were 5′-[…]-3′ and 5′-[…]-3′ (Tm, 70.6 °C), and for Q87A were 5′-[…]-3′ and 5′-[…]-3′ (Tm, 73.1 °C).
HeLa cells were plated at 1.5 × 10^5 cells/well in six-well plates in their growth medium without antibiotics. […]
For the GPR55-internalisation assay, after stimulation, the HeLa cells were washed twice with cold HBSS^++, stained while adhered with the monoclonal anti-HA antibody (1:1000) in PBS plus 3% BSA for 1 h on ice, washed three times with cold PBS, incubated with the Alexa488-tagged anti-mouse antibody (1:800) in PBS plus 3% BSA for 45 min on ice. […] The collected cells were centrifuged at 300×g, suspended in PBS plus 3% BSA, and analysed by FACS.

In test [3] the test system is human GPR55. The following applies: ref [38]; cited from earlier work. From the text: GPR55 is overexpressed in several tumour cells, with GPR55 expression shown to correlate with tumour aggressiveness and GPR55 activation to promote cancer-cell proliferation both in cell culture and in xenografts in mice. Therefore, we previously attempted to identify peptides that bind to human GPR55, for innovative targeting of GPR55 for potential therapeutic and/or diagnostic applications. Osteoclasts are also among the cells with the highest expression of GPR55 [9], and as GPR55 is involved in their differentiation, its targeting might be instrument ...

Test [4] concerns RAW264.7 cells. Put plainly: RANKL-induced transcription of osteoclastogenesis markers in RAW264.7 cells (real-time PCR). The format is cell-based, murine. The following applies: 150 nM (0.2 µg/mL) peptide, 15 ng/mL RANKL, 72 h. The procedure:
Total RNA was extracted using RNeasy isolation kits, cDNAs were obtained using QuantiTect Reverse Transcription kits, and real-time PCRs were performed with QuantiTect SYBR Green PCR kits (all from Qiagen, Hilden, Germany), according to the manufacturer instructions. The primers used for the real-time PCRs and their annealing temperatures are listed in the Additional file 1: Table S1. Human hypoxanthine phosphoribosyltransferase 1 (HPRT1) or murine β2-microglobulin were followed as housekeeping genes. The real-time PCR programme consisted of an initial 15 min at 95 °C, and then 45 cycles as follows: 94 °C for 15 s, annealing temperature of each primer for 30 s, and 72 °C for 30 s. The real-time PCR machine used was a LightCycler 480 Instrument II (Roche, Indianapolis, IN, USA).
(§1) For transient interference of Gpr55, RAW264.7 cells were plated at 6 × 10^5 cells/well in six-well plates in growth medium without antibiotics. Twenty-four hours later, the cells were transfected with 250 pmol/well non-targeting small-interfering (si)RNAs (si-NT; siGENOME siRNA Pool #2; D-001206-14; Dharmacon, Chicago, IL, USA) or Gpr55-specific siRNAs (si-GPR55; siGENOME mouse GPR55 SMART pool; M-043590-01; Dharmacon) using Lipofectamine LTX and Plus Reagent, according to the manufacturer instructions. Twenty-four hours later, the cells were plated for the different assays or for RNA extraction. The efficiency of interference was monitored by real-time PCR after 72 h of interference, using the primers listed in the Additional file 1: Table S1. β2-microglobulin was followed as a housekeeping gene.
For the osteoclastogenesis in-vitro assay, RAW264.7 cells were plated in differentiation medium (α-MEM with 10% heat-inactivated FBS, 2 mM L-glutamine, 100 U/mL penicillin, and 100 ug/mL streptomycin) at a density of 5 × 10^3 cells/well in 24-well plates on coverslips for morphological analysis, or at 2 × 10^4 cells/well in six-well plates for RNA extraction. Twenty-four hours later and every 48 h, the medium was replaced and the cells were treated with 15–30 ng/mL RANKL with DMSO and/or PBS as carriers, or with GPR55 antagonists/ agonists (0.5 µM ML-191, 30 µM O1918, 0.5 µM CBD, 0.5 μM CID16020046 1 µM soybean LPI, 1 μM ML-184), or with the peptides (150 nM peptide-P1; or the irrelevant peptide, Irr_P). Twenty-four hours after the last addition, the cells were fixed with 4% paraformaldehyde for morphological analyses or harvested for RNA extraction (see above).
(In general: In qPCR the cycle at which signal appears reflects the starting amount.)

The subject of test [5] is RAW264.7 cells. The test can be described thus: Osteoclast syncytium formation (nuclei/cell). The following applies: 150 nM (0.2 µg/mL) peptide, 72 h RANKL. The format is cell-based, murine. As for the experimental part: as §1
For the evaluation of osteoclast syncytium formation, the nuclei of multinucleated cells were counted in a blinded manner using a 63 × objective, moving across the coverslip in the vertical and horizontal directions.
For the osteoclastogenesis in-vitro assay, RAW264.7 cells were plated in differentiation medium (α-MEM with 10% heat-inactivated FBS, 2 mM L-glutamine, 100 U/mL penicillin, and 100 ug/mL streptomycin) at a density of 5 × 10^3 cells/well in 24-well plates on coverslips for morphological analysis, or at 2 × 10^4 cells/well in six-well plates for RNA extraction. […]

The test system of test [6] is EHEB and DeFew cells (two human B-lymphoblastoid cell lines). The following applies: ref [38], cited from earlier work.
Test [7] deals with peptide-P1 (synthetic construct). The following applies: cited from earlier work.
For a further test, the target named is T1, murine GPR55 (Mus musculus, UniProt Q3UJF0).
T1 construct: endogenous in cells; host or cells: RAW264.7 mouse macrophages (wild-type, or treated with si-NT / si-GPR55 siRNAs)
The test can be described thus: Peptide binding to intact RAW264.7 cells (FACS). The following applies: FITC-Scr; si-GPR55 + siGLO relative to si-NT + siGLO; 40 µg/mL, 15 min, 37 °C.

The target in the next test is T2, peptide-P1 (synthetic construct, disulfide 1-9 (inferred)).
T2 chain: {FITC-Ahx}-CKKNSPTLC
The test can be described thus: FACS binding of FITC-peptide to RAW264.7 cells. (A flow cytometer gives signals particle by particle.)

Method for murine GPR55: Wild-type or 48-h-interfered RAW264.7 cells were plated at a density of 1.2 × 10^6 cells/well in six-well plates, and the following day they were used for on-plate-binding assays, or for RNA extraction. Before peptide addition, the cells were washed twice with HBSS^++, and then incubated without or with 40 µg/mL FITC-P1 or FITC-Scr for the indicated times at 37 °C in HBSS^++ plus 0.01% faf-BSA. The incubations were stopped by three washes with PBS, detached by scraping with PBS plus 2 mM EDTA, and then suspended in PBS plus 3% BSA. Fluorescence intensity was evaluated by FACS, and reported as means of cell-associated fluorescence increases compared to cells incubated in absence of peptides.
To evaluate peptide-P1 specificity towards murine GPR55, RAW264.7 cells were Gpr55-interfered as above, but the duplexes were previously mixed with the double pmol amount of siGLO Red transfection indicator (Dharmacon). […] FITC-fluorescence intensity was evaluated by FACS, and reported as means of cell-associated fluorescence increases compared to cells incubated in absence of peptides.

Consider `CC(C)C[C@@H]1NC(=O)[C@H]([C@@H](C)O)NC(=O)[C@@H]2CCCN2C(=O)[C@H](CO)NC(=O)[C@H](CC(N)=O)NC(=O)[C@H](CCCCN)NC(=O)[C@H](CCCCN)NC(=O)[C@@H](NC(=O)CCCCCNC(=S)Nc2ccc3c(c2)C(=O)OC32c3ccc(O)cc3Oc3cc(O)ccc32)CSSC[C@@H](C(=O)O)NC1=O` [FITC-P1] ({FITC-Ahx}-CKKNSPTLC-OH; disulfide 1-9; N-terminus and C-terminus assumed), for which the Kd at human GPR55 [1] is 20 µM.
Turning to `C[C@H](CCC(=O)O)C[C@H](C)C[C@H](C)C(=O)/C=C(\O)[C@H](C)C[C@H](C)C/C=C/[C@@H](C)[C@@H](O)[C@@H](C)[C@@H](O)C[C@@H]1CC[C@@](C)([C@H]2CC[C@@](C)([C@@H](C)O)O2)O1` [ionomycin], the “ERK1/2 and p38 activation” value in [2] is reported as “still activated these pathways”.
Take “CKKNSPTLC (disulfide 1-9 (inferred)) [peptide-P1]”: the “regulation of wild-type and GPR55-K80A mutant internalisation” value in the test on ssGPR55-K80A was “comparable regulation of both wild-type and GPR55-K80A mutant internalisation”. In addition, in the test with human GPR55 [3], the “competition with LPI action” value is given as “did not compete with LPI action” and the “human GPR55 internalisation” value is “inducing human GPR55 internalisation in a β-arrestin–independent manner”. Further, the “inhibition of osteoclast maturation (five differentiation markers)” value with RAW264.7 cells [4] is “significant inhibition of osteoclast maturation”. Besides, in the test with RAW264.7 cells [4] (three independent experiments), the “reduction of RANKL-induced Cathepsin-k mRNA by peptide” value turned out to be 40%, the “reduction of RANKL-induced Ctr mRNA by peptide” value was determined as 35%, the “reduction of RANKL-induced Mmp-9 mRNA by peptide” value is 50% and the “reduction of RANKL-induced Nfatc1 mRNA by peptide” value is 30%. Besides, the “reduction of RANKL-induced Trap mRNA by peptide” value in the test on RAW264.7 cells [4] (three independent experiments) amounted to 35%. In the test with RAW264.7 cells [5], the “effect on RANKL-induced osteoclast syncytium formation, peptide” value is “did not have any significant effects”. Also, the “inhibition of GPR55-dependent proliferation” value in test [6] is recorded as “inhibited GPR55-dependent proliferation of two human B-lymphoblastoid cell lines”. The “inhibition of GPR55-dependent proliferation” value in [6] (listed as Peptide-P1) was “inhibit GPR55-dependent proliferation of EHEB and DeFew cells”.
Take GPR55 (from UniProt Q9Y2T6): in test [7], the Kd is 20 µM.
“KCLTSNCPK (disulfide 2-7 (inferred)) [FITC-Scr, FITC-conjugated scrambled (…) peptide]”: the “effect of Gpr55 interference on binding” value at murine GPR55 is given as “not significantly affected by Gpr55 interference”.

B1: GPR55 (protein)
chain: MSQPERDNCSFDSVDKLTRTLQLAVHIPTFLLGLVLNLLAIRGFSAFLKKRKLDYIATSIYMINLAVFDLLLVLSLPFKMVLPQVESPLPSFCTLVECLYFISMYGSVFTICFISLDRFLAIQYPILASHLRSPRKTFGICCIIWMLVWIGSIPIYTFHREVERYKCFHNMSDVTWSASVFFPLEIFGFLLPMGIMGFCSYRSIHILLRRPDSTEDWVQQRDTKGWVQKRACIWTIATNLVIFVVSFLPVHLGFFLQYLVRNRFILDCRMKQGISLFLQLSLCFSNINCCLDVFCYYFVIKEFRMRIKAHRPSTIKLVNQDTMVSRG
In the test with peptide-P1, B1 gave a Kd of 22.7 µM.
